Molecular target: T1, ROR gamma ligand-binding domain (LBD) (hRORg) (Homo sapiens, UniProt P51449)
T1 construct: expressed in transfected cells; host or cells: HG5LN (HeLa line with GAL4-responsive luciferase reporter)
T1 sequence (P51449 269-508 limits assumed): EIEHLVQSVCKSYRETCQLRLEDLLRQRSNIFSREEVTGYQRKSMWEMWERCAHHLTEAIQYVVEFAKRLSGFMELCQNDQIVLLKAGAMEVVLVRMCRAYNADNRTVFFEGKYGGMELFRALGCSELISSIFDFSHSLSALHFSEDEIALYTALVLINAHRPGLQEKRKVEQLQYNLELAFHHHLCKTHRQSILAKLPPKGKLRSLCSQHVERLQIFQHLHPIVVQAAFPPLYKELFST
Test: GAL4-RORγ transactivation (luciferase reporter, HG5LN HeLa line)
Type: cell-based
Conditions: HG5LN HeLa line with GAL4 DBD fused to ROR gamma LBD, 18 hours incubation
Description: GAL4—RORγ Transactivation
The RORγ transactivation model was developed from the line HG5LN, which is a HeLa line that stably expresses a luciferase reporter gene controlled by a pentamer of the GAL4 recognition domain of yeast and of a β-globin promoter. The HG5LN line was stably transfected by the DNA-binding domain (DBD) of GAL4 fused to the ROR gamma ligand-binding domain (LBD). Molecules that inhibit the ROR gamma constitutive activity reduce the luciferase expression, thus leading to a reduction in the emitted luminescence.
The cells are seeded in 384-well plates (5000 cells in 45 μL/well of culture medium containing 10% fetal calf serum) and incubated for 4 hours at 37° C., 5% CO2. 5 μL of the test molecules (compounds described in the tables described above) are then added to each well and the plates are incubated for 18 hours at a temperature of 37° C. under 5% of CO2. 20 μL of luciferase substrate (Promega) are added to each well and the luminescence emitted is read by a microplate reader.
The luminescence units (“RLU”) are normalized by positive controls (“POS” containing a saturated concentration of N-(2,2,2-trifluoroethyl)-N-[4-[2,2,2-trifluoro-1-hydroxy-1-(trifluoromethyl)ethyl]phenyl])benzenesulfonamide and negative controls (“NEG” containing DMSO): % inhibition=((RLU-NEG)*100)/(POS-NEG). The IC50 values are calculated from a 4-parameter logistic model using the XLFit software (IDBS).

| Structure (SMILES) | IC50 |
| --- | --- |
| CCc1ccc(N(CC(C)C)S(=O)(=O)c2ccc3c(c2)C(=O)CCN3CC2CCC(=O)N2)cc1 (stereo not drawn) [Compound 3, 4-oxo-1-(5-oxopyrrolidin-2-ylmethyl)-1,2,3,4-tetrahydroquinoline-6-sulfonic acid (4-ethylphenyl)isobutylamide] | > 1000 nM |
| CCc1ccc(N(CC(C)C)S(=O)(=O)c2ccc3c(c2)C(=O)CCN3CC2CCN(C(=O)OC(C)(C)C)CC2)cc1 [Compound 5, tert-butyl ester of 4-{6-[(4-ethylphenyl)isobutylsulfamoyl]-4-oxo-3,4-dihydro-2H-quinolin-1-ylmethyl}piperidine-1-carboxylic acid] | > 1000 nM |
| CCc1ccc(N(CC(C)C)S(=O)(=O)c2ccc3c(c2)C(=O)CCN3CC2(C)CCOCC2)cc1 [Compound 6, 1-(4-methyltetrahydropyran-4-ylmethyl)-4-oxo-1,2,3,4-tetrahydroquinoline-6-sulfonic acid (4-ethylphenyl)isobutylamide] | 100 to 1000 nM |
| CCc1ccc(N(CC(C)C)S(=O)(=O)c2ccc3c(c2)C(=O)CCN3CC2CCS(=O)(=O)CC2)cc1 [Compound 7, 1-(1,1-dioxohexahydro-1λ^6-thiopyran-4-ylmethyl)-4-oxo-1,2,3,4-tetrahydroquinoline-6-sulfonic acid (4-ethylphenyl)isobutylamide] | > 1000 nM |
| CCc1ccc(N(CC(C)C)S(=O)(=O)c2ccc3c(c2)C(=O)CCN3Cc2ccc(C(=O)NO)cc2)cc1 [Compound 8, 4-{6-[(4-ethylphenyl)isobutylsulfamoyl]-4-oxo-3,4-dihydro-2H-quinolin-1-ylmethyl}-N-hydroxybenzamide] | > 1000 nM |
| CCc1ccc(N(CC(C)C)S(=O)(=O)c2ccc3c(c2)C(O)CCN3CC2CCC(=O)N2)cc1 (stereo not drawn) [Compound 9, 4-hydroxy-1-(5-oxopyrrolidin-2-ylmethyl)-1,2,3,4-tetrahydroquinoline-6-sulfonic acid (4-ethylphenyl)isobutylamide] | 100 to 1000 nM |

Further lines, results first:

| IC50 | Structure (SMILES) |
| --- | --- |
| 100 to 1000 nM | CCc1ccc(N(CC(C)C)S(=O)(=O)c2ccc3c(c2)C(O)CCN3CC2CCC(O)CC2)cc1 (single isomer, unassigned) [Compound 42, 4-hydroxy-1-(4-hydroxycyclohexylmethyl)-1,2,3,4-tetrahydroquinoline-6-sulfonic acid (4-ethylphenyl)isobutylamide] |
| 100 to 1000 nM | CCc1ccc(N(CC(C)C)S(=O)(=O)c2ccc3c(c2)C(O)CCN3CC2CCC(O)CC2)cc1 (single isomer, unassigned) [Compound 43, 4-hydroxy-1-(4-hydroxycyclohexylmethyl)-1,2,3,4-tetrahydroquinoline-6-sulfonic acid (4-ethylphenyl)isobutylamide] |
| > 1000 nM | CCc1ccc(N(CC(C)C)S(=O)(=O)c2ccc3c(c2)C(O)CCN3C2CCNC(=O)C2)cc1 (single isomer, unassigned) [Compound 52, 4-hydroxy-1-(2-oxopiperidin-4-yl)-1,2,3,4-tetrahydroquinoline-6-sulfonic acid (4-ethylphenyl)isobutylamide] |
| > 1000 nM | CCc1ccc(N(CC(C)C)S(=O)(=O)c2ccc3c(c2)C(O)CCN3C2CCNC(=O)C2)cc1 (single isomer, unassigned) [Compound 53, 4-hydroxy-1-(2-oxopiperidin-4-yl)-1,2,3,4-tetrahydroquinoline-6-sulfonic acid (4-ethylphenyl)isobutylamide] |
| > 1000 nM | CCc1ccc(N(CC(C)C)S(=O)(=O)c2ccc3c(c2)C(O)CCN3CC2CCN(C(=O)OC(C)(C)C)CC2)cc1 (stereo not drawn) [Compound 12, tert-butyl ester of 4-{6-[(4-ethylphenyl)isobutylsulfamoyl]-4-hydroxy-3,4-dihydro-2H-quinolin-1-ylmethyl}piperidine-1-carboxylic acid] |
| > 1000 nM | CCc1ccc(N(CC(C)C)S(=O)(=O)c2ccc3c(c2)C(O)CCN3C2CCN(C(=O)OC(C)(C)C)CC2)cc1 (stereo not drawn) [Compound 13, tert-butyl ester of 4-{6-[(4-ethylphenyl)isobutylsulfamoyl]-4-hydroxy-3,4-dihydro-2H-quinolin-1-yl}piperidine-1-carboxylic acid] |

— US10550110B2, “Tetrahydroquinoline sulfonamide derivatives as inverse agonists of retinoid-related orphan receptor gamma (ROR gamma (t))” (GALDERMA RESEARCH & DEVELOPMENT, priority 2014, dated 2020)
